The target in experiment [1] is T1, M-phase inducer phosphatase 1 (Homo sapiens, UniProt P30304).
T1 sequence (P30304 whole entry): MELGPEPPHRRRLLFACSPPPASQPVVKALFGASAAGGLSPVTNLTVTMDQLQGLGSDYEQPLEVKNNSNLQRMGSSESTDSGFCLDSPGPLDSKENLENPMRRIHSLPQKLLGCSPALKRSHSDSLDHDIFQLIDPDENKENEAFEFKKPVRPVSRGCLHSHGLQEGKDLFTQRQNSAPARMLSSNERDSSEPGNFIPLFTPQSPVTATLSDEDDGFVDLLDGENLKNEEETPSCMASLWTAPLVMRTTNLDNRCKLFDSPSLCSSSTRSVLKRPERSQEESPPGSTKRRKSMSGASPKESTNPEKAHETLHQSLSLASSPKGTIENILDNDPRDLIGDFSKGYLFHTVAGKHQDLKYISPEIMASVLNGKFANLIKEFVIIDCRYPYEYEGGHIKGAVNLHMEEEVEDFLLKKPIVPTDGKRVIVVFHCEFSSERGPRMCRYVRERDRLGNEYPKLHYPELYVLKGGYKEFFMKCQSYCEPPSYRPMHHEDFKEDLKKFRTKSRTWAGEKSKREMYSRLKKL
The experiment in a line: Inhibition of full-length recombinant human CDC25A using OMFP as substrate incubated for 5 to 8 mins by fluorescence based assay.

The target of experiment [2] is T2, M-phase inducer phosphatase 2 (Homo sapiens, UniProt P30305).
T2 sequence (P30305 whole entry): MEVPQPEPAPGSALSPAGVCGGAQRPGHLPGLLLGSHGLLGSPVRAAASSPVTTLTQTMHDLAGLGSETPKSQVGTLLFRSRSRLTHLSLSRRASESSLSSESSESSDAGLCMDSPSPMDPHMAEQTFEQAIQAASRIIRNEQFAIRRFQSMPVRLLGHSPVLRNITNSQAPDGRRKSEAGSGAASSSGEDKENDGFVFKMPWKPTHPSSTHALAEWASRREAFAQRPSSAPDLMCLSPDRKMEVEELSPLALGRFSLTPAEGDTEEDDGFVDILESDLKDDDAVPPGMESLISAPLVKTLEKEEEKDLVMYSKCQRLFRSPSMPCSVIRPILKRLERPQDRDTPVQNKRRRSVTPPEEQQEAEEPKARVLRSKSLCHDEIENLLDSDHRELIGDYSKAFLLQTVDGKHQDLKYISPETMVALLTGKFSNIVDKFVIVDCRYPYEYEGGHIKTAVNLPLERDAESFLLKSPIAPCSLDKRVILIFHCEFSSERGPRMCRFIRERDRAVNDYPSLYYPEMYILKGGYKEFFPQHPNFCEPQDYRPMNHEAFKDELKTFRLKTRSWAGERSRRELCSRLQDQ
The experiment in a line: Inhibition of full-length recombinant human CDC25B using OMFP as substrate incubated for 5 to 8 mins by fluorescence based assay.

Experiment [3] has as its target T3, M-phase inducer phosphatase 3 (Homo sapiens, UniProt P30307).
T3 sequence (P30307 whole entry): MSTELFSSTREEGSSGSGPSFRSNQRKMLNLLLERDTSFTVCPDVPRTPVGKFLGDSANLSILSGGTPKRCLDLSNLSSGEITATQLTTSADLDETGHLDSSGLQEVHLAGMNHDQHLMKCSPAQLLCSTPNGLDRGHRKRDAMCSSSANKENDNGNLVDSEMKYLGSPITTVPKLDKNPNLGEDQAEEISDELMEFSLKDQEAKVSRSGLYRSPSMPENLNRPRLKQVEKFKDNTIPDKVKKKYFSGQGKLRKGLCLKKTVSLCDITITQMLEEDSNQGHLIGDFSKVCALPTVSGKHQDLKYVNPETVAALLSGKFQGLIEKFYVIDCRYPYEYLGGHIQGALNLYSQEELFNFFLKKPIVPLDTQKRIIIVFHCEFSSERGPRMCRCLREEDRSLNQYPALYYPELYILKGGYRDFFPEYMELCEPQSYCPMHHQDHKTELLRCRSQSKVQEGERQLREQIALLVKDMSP
The experiment in a line: Inhibition of full-length recombinant human CDC25C using OMFP as substrate incubated for 5 to 8 mins by fluorescence based assay.

Broadly, the IC50 is the concentration needed to halve the response being measured.

For `CC(NC1=C(Cl)C(=O)c2cccnc2C1=O)c1cn(-c2ccc(CO)cc2)nn1` (stereo not drawn), the half-maximal inhibitory concentration (IC50) in experiment [1] came out at 150 nM; in experiment [2] it was 190 nM; in experiment [3], 60 nM.

Source of the values: ChEMBL document CHEMBL5360572, “Advances of bioorthogonal coupling reactions in drug development” (Eur J Med Chem, 2023).
